Data set [1] has as its target T1, hTRPC5 (Homo sapiens, UniProt Q9UL62).
T1 construct: expressed in transfected cells; host or cells: HEK-293
T1 sequence (Q9UL62 1-973): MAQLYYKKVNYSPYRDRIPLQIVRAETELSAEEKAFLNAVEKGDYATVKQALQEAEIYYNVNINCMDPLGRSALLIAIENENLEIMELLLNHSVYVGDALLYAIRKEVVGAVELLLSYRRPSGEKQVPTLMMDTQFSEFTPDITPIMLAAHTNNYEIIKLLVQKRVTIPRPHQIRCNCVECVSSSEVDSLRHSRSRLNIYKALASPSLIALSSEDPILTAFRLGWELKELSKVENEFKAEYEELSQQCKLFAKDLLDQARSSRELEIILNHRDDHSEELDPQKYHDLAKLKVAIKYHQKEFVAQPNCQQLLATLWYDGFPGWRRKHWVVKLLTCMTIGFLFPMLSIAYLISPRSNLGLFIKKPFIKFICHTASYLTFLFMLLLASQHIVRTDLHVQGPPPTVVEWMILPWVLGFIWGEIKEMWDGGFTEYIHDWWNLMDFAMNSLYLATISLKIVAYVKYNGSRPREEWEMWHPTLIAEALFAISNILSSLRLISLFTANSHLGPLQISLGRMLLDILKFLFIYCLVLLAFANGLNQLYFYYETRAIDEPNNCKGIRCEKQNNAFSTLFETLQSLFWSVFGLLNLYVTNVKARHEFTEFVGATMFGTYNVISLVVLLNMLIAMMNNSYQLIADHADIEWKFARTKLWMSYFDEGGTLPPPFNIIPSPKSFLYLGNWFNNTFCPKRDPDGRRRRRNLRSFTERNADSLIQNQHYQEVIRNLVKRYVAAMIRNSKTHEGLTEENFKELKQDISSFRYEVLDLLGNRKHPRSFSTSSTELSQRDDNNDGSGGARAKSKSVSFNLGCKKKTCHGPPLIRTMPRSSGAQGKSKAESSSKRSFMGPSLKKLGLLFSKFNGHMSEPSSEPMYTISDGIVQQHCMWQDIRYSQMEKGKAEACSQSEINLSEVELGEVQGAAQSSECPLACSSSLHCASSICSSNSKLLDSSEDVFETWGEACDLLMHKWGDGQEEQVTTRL
In words: TRPC5 agonist activity assay (FLIPR calcium fluorescence). The following applies: Table 2, agonist activity on TRPC5 channels. The data set is classed as cell-based. As to the method:
HEK-293 cells expressing hTRPC5 were seeded into PDL-coated black-walled 96-well plates, with 2×10^4 cells per well. After 8 hours of culture, the original culture medium was discarded, and 60 µL of 4 µM Fluo-4/AM dye was added immediately. The cells were incubated at 37 °C for 60 minutes, and then rinsed with calcium flow detection buffer 5 times. The cell plates were placed in FLIPR®TETRA (Molecular Devices, Sunnyvale, CA, USA) preheated at 30 °C, excited at a wavelength of 488 nm, and the fluorescence signals were continuously recorded in the range of 515-535 nm with a sampling frequency of 1 s. After recording for 360 seconds, solvent control and test compounds were added, and the fluorescence signal was collected for another 600 seconds. The fluorescence signal of the trajectory diagram is represented by F/F0, wherein F is the fluorescence signal at different time points, and F0 is the basic fluorescence signal, that is, the average value of the fluorescence signal at the first 10 time points. The dose-effect diagram first took F/F0 =1 as the baseline. The area under the curve of the change in fluorescence intensity after adding test compound was calculated. IC50 value was calculated using log[agonist] vs. response - Variable slope, taking into account the area under the curve and the log value of the concentration of the compound.

The nature of data set [2]: Liver microsome stability test, human. The settings on record: for Stability Evaluation / MF %: Human liver microsomes; for MF %: metabolic bioavailability. For orientation: Microsomes from liver hold many membrane-bound enzymes, among them those of drug oxidation.
The nature of data set [3]: Liver microsome stability test, mouse. The settings on record: Mouse liver microsomes; for MF %: metabolic bioavailability. In kind it is in vitro ADME. From the text: Calculation of Intrinsic Clearance: Clint = (1000 × slope)/(P); [formula]
Data set [4] is described as follows: Preliminary pharmacokinetic evaluation, plasma drug concentration after oral administration to mice. The data set is classed as in vivo, ICR mice. The following applies: male, ICR, mouse, oral 10 mg/kg, Mean ± SD, N = 3. How it is done:
The test compound was prepared according to the following solvent: an aqueous solution of DMSO/Tween 80/0.5% (m/v) CMC-Na at a ratio of 2:2:96 (v/v/v), with a drug concentration of 1 mg/mL. Then, the test compound was gavaged to mice at a dosage of 10 mL/kg, with a dose of 10 mg/kg. Each compound was administered to 3 mice. At 1h and 4h after administration, about 50 µL of blood was collected from the orbital venous plexus of the mouse and placed in a centrifuge tube containing EDTA-K2 anticoagulant.

The target in data set [5] is T1, hTRPC5. The data set is described as follows: TRPC5 inhibitory activity assay (FLIPR calcium fluorescence, Englerin A stimulation). In kind it is cell-based. The settings on record: Table 1, TRPC5 channels, HEK-293 cells expressing hTRPC5; read-out: FLIPR IC50. As to the method: HEK-293 cells expressing hTRPC3, hTRPC4 or hTRPC5 were seeded into black-bottomed 96-well plates coated with poly-lysine (PDL), with 2×10^4 cells per well. After 8 h of culture, the original culture medium was discarded, and 60 µL of Fluo-4/AM dye with a final concentration of 4 µM was added. The plates were incubated at 37 °C for 60 min, and then rinsed five times with calcium flow detection buffer. […] Then, the agonist Englerin A (EA) (MedChemExpress, Shanghai, China, final concentration of 0.3nM) was added, and the fluorescence signal was collected for 600 seconds. The fluorescence signal of the trajectory diagram is represented by F/F0, wherein F is the fluorescence signal at different time points, and F0 is the basic fluorescence signal, that is, the average value of the fluorescence signal at the first 10 time points. […] The area under the curve of the change in fluorescence intensity after adding EA was calculated. IC50 value was calculated using log[Inhibitor] vs. response - Variable slope, taking into account the area under the curve and the log value of the concentration of the compound.

Each structure is given as a SMILES string.

By EC50 is commonly meant the concentration giving half of the maximal effect. Regarding `Cn1c(=O)n(CCCO)c(=O)c2c1cc(C1CCC(c3ccccc3)CC1)n2Cc1ccc(Cl)cc1` (stereo not drawn) [Example E5, 5-(4-chlorobenzyl)-3-(3-hydroxypropyl)-1-methyl-6-(4-phenylcyclohexyl)-1,5-dihydro-2H-pyrrolo[3,2-d]pyrimidine-2,4(3H)-dione], on hTRPC5 [1], the EC50 turned out to be 141 nM.

`CC(C)OC1CCC(c2nc3c(c(=O)n(CCCO)c(=O)n3C)n2Cc2ccc(Cl)cc2)CC1` (stereo not drawn) [Example E7, 7-(4-chlorobenzyl)-1-(3-hydroxypropyl)-8-(4-isopropoxycyclohexyl)-3-methyl-3,7-dihydro-1H-purine-2,6-dione]: at hTRPC5 [1], the concentration giving a half-maximal response (EC50) was determined as 36.1 nM.

Turning to `CC(C)n1c(=O)n(CCCO)c(=O)c2c1nc(C1CC1C1CC1)n2Cc1ccc(Cl)cc1` (stereo not drawn) [Example E14, 8-([1,1'-bis(cyclopropan)]-2-yl)-7-(4-chlorobenzyl)-1-(3-hydroxypropyl)-3-isopropyl-3,7-dihydro-1H-purine-2,6-dione], the half-maximal effective concentration (EC50) at hTRPC5 [1] turned out to be 105 nM.

Consider `Cn1c(=O)n(CCCO)c(=O)c2c1nc(C1(F)CC(c3ccccc3)C1)n2Cc1ccc(Cl)cc1` (stereo not drawn) [Example E17, 7-(4-chlorobenzyl)-8-(1-fluoro-3-phenylcyclobutyl)-1-(3-hydroxypropyl)-3-methyl-3,7-dihydro-1H-purine-2,6-dione], for which the EC50 on hTRPC5 [1] came to 242 nM.

As to `Cn1c(=O)n(CCCO)c(=O)c2c1nc(C1(F)CCC(F)(F)CC1)n2Cc1ccc(Cl)cc1` [Example E38, 7-(4-chlorobenzyl)-1-(3-hydroxypropyl)-3-methyl-8-(1,4,4-trifluorocyclohexyl)-3,7-dihydro-1H-purine-2,6-dione], in data set [2], the “Stability Evaluation” value was “Medium (30%<MF%<70%, medium metabolic stability)” and the MF % is recorded as 50.5%. In data set [3], the “Stability Evaluation” value was “Medium (30%<MF%<70%, medium metabolic stability)” and the MF % came to 42.1%.

As to `Cn1c(=O)n(CCCO)c(=O)c2c1nc(C1(F)CCC(F)(F)CC1)n2Cc1ccc(F)cc1` [Example E45, 7-(4-fluorobenzyl)-1-(3-hydroxypropyl)-3-methyl-8-(1,4,4-trifluorocyclohexyl)-3,7-dihydro-1H-purine-2,6-dione], in data set [2], the “Stability Evaluation” value is “Medium (30%<MF%<70%, medium metabolic stability)” and the MF % is recorded as 67.0%. In data set [3], the “Stability Evaluation” value is “Medium (30%<MF%<70%, medium metabolic stability)” and the MF % is reported as 59.1%.

In data set [4], `CC(C)n1c(=O)n(CCCO)c(=O)c2c1nc(C1(F)CCC(F)(F)CC1)n2Cc1ccc(F)cc1` [Example E46, 7-(4-fluorobenzyl)-1-(3-hydroxypropyl)-3-isopropyl-8-(1,4,4-trifluorocyclohexyl)-3,7-dihydro-1H-purine-2,6-dione] displayed a concentration at 1 h of 1170 ± 410 ng/mL and a concentration at 4 h of 576 ± 117 ng/mL.

Turning to `Cn1c(=O)n(CCCO)c(=O)c2c1nc(C1(F)CCC(F)(F)CC1)n2Cc1cc(F)cc(F)c1` [Example E61, 7-(3,5-difluorobenzyl)-1-(3-hydroxypropyl)-3-methyl-8-(1,4,4-trifluorocyclohexyl)-3,7-dihydro-1H-purine-2,6-dione], in data set [2], the “Stability Evaluation” value is listed as “Better (MF% >70%, better metabolic stability)” and the MF % worked out at 77.4%.

A word on the half-life: it is the time needed for the level to fall by half in the phase considered. A lower half-life goes with fast loss. What is called IC50 is the concentration needed to halve the response being measured. As to `Cn1c(=O)n(CCCO)c(=O)c2c1nc(C1(F)CCC(C(F)(F)F)CC1)n2Cc1ccccc1` (stereo not drawn) [Example E63, 7-benzyl-8-(1-fluoro-4-(trifluoromethyl)cyclohexyl)-1-(3-hydroxypropyl)-3-methyl-3,7-dihydro-1H-purine-2,6-dione], in data set [4], the concentration at 1 h worked out at 2800 ± 860 ng/mL and the concentration at 4 h stood at 2060 ± 755 ng/mL. In addition, in data set [2], the “Stability Evaluation” value was “Better (MF% >70%, better metabolic stability)” and the MF % amounted to 74.4%. The same compound yielded a half-life at 1 µM in data set [2] (human, liver microsomes, pH 7.4) of 5.18 h. In addition, at hTRPC5 [5], the IC50 turned out to be 0.86 nM.

For `Cn1c(=O)n(CCCO)c(=O)c2c1nc(C1(F)CCC(F)(F)CC1)n2Cc1ccc(F)cc1F` [Example E64, 7-(2,4-difluorobenzyl)-1-(3-hydroxypropyl)-3-methyl-8-(1,4,4-trifluorocyclohexyl)-3,7-dihydro-1H-purine-2,6-dione], in data set [2], the “Stability Evaluation” value was “Better (MF% >70%, better metabolic stability)” and the MF % is 72.5%. Moreover, in data set [3], the “Stability Evaluation” value is reported as “Medium (30%<MF%<70%, medium metabolic stability)” and the MF % is listed as 56.4%.

For `Cn1c(=O)n(CCCO)c(=O)c2c1nc(C1(F)CCC(C(F)(F)F)CC1)n2Cc1ccc(F)c(Cl)c1` (stereo not drawn) [Example E69, 7-(3-chloro-4-fluorobenzyl)-8-(1-fluoro-4-(trifluoromethyl)cyclohexyl)-1-(3-hydroxypropyl)-3-methyl-3,7-dihydro-1H-purine-2,6-dione], the IC50 at hTRPC5 [5] is 0.37 nM.

In the case of `Cn1c(=O)n(CCCO)c(=O)c2c1nc(C1(F)CCC(F)(F)CC1)n2Cc1ccc(Cl)cc1F` [Example E70, 7-(4-chloro-2-fluorobenzyl)-1-(3-hydroxypropyl)-3-methyl-8-(1,4,4-trifluorocyclohexyl)-3,7-dihydro-1H-purine-2,6-dione], in data set [4], the concentration at 1 h came to 1260 ± 167 ng/mL and the concentration at 4 h was found to be 1200 ± 110 ng/mL.

For the compound `Cn1c(=O)n(CCCO)c(=O)c2c1nc(C1(F)CCC(C(F)(F)F)CC1)n2Cc1ccc(Cl)cc1F` (stereo not drawn) [Example E71, 7-(4-chloro-2-fluorobenzyl)-8-(1-fluoro-4-(trifluoromethyl)cyclohexyl)-1-(3-hydroxypropyl)-3-methyl-3,7-dihydro-1H-purine-2,6-dione], the IC50 on hTRPC5 [5] amounted to 0.27 nM.

In the case of `Cn1c(=O)n(CCCO)c(=O)c2c1nc(C1(F)CCC(F)(F)CC1)n2Cc1ccc(C#N)cc1` [Example E72, 4-((1-(3-hydroxypropyl)-3-methyl-2,6-dioxo-8-(1,4,4-trifluorocyclohexyl)-1,2,3,6-tetrahydro-7H-purin-7-yl)methyl)benzonitrile], in data set [2], the “Stability Evaluation” value is listed as “Medium (30%<MF%<70%, medium metabolic stability)” and the MF % is 66.7%.

Take `Cn1c(=O)n(CCCO)c(=O)c2c1nc(C1(F)CCC(C(F)(F)F)CC1)n2Cc1ccc(C#N)cc1` (stereo not drawn) [Example E73, 4-((8-(1-fluoro-4-(trifluoromethyl)cyclohexyl)-1-(3-hydroxypropyl)-3-methyl-2,6-dioxo-1,2,3,6-tetrahydro-7H-purin-7-yl)methyl)benzonitrile]: the 50% inhibitory concentration (IC50) on hTRPC5 [5] was determined as 1.88 nM.
